From PMC7935272 (PLoS Pathogens, 2021)
Like-named read-outs stand apart in the source and are kept apart here.

Tests used:
MeV [1] = conditions: cited from earlier work; for IC50: Figure 7A source data; for EC50: experimental activity, read-out: EC50
MeV [2] = experiment: Cell-based anti-MeV assays of earlier work
[3] = cited from earlier work
[4] = −log10(EC50) of literature EC50

Row | Structure (SMILES) | IC50 (MeV [1]) | EC50 (MeV [1]) | IC50 (MeV [2]; Figure 7A source data) | IC50 (MeV [2]; [4]) | CC50 [3]
1 | CC(C)N(C(C)C)S(=O)(=O)c1ccc(NC(=O)c2cc(C(F)(F)F)cn2C)cc1 [15o, S(=O)(=O)(N(C(C)C)C(C)C)c1ccc(NC(=O)c2n(C)cc(C(F)(F)F)c2)cc1] | 529 nM | 520 nM | 530 nM | 531 nM | > 300000 nM
2 | CCOC(=O)CCC1CCCCN1S(=O)(=O)c1ccc(NC(=O)c2cc(C(F)(F)F)nn2C)cc1 (centres unmarked) [2i, S(=O)(=O)(N1C(CCC(=O)OCC)CCCC1)c1ccc(NC(=O)c2n(C)nc(C(F)(F)F)c2)cc1] | 6690 nM | 6600 nM | 6700 nM | 6710 nM | > 100000 nM
3 | CC1CCCC(C)N1S(=O)(=O)c1ccc(NC(=O)c2cc(C(F)(F)F)cn2C)cc1 (centres unmarked) [15d, S(=O)(=O)(N1C(C)CCCC1C)c1ccc(NC(=O)c2n(C)cc(C(F)(F)F)c2)cc1] | 14 nM | 14 nM | 14 nM | 14 nM | > 300000 nM
4 | CCOC(=O)C=CC1CCCCN1S(=O)(=O)c1ccc(NC(=O)c2cc(C(F)(F)F)nn2C)cc1 (centres unmarked) [2g, S(=O)(=O)(N1C(C=CC(=O)OCC)CCCC1)c1ccc(NC(=O)c2n(C)nc(C(F)(F)F)c2)cc1] | 6800 nM | 6800 nM | 6800 nM | 6810 nM | > 100000 nM
5 | Cn1cc(C(F)(F)F)cc1C(=O)Nc1ccc(S(=O)(=O)N2CCC[C@@H]2C(=O)OC(=O)c2ccccc2)cc1 [15h, S(=O)(=O)(N1[C@@H](C(=O)OC(=O)c2ccccc2)CCC1)c1ccc(NC(=O)c2n(C)cc(C(F)(F)F)c2)cc1] | 14000 nM | 14000 nM | 14000 nM | 14000 nM | > 100000 nM
6 | Cn1nc(C(F)(F)F)cc1C(=O)Cc1ccc(S(=O)(=O)N2CCCC2)cc1 [MS-26, S(=O)(=O)(N1CCCC1)c1ccc(CC(=O)c2n(C)nc(C(F)(F)F)c2)cc1] | 15500 nM | 15500 nM | 15500 nM | 15500 nM | > 300000 nM
7 | CCN(CC)S(=O)(=O)c1ccc(NC(=O)c2cc(C(F)(F)F)cn2C)cc1 [15n, S(=O)(=O)(N(CC)CC)c1ccc(NC(=O)c2n(C)cc(C(F)(F)F)c2)cc1] | 18.9 nM | 18 nM | 19 nM | 19 nM | > 300000 nM
8 | Cn1nc(C(F)(F)F)cc1C(=O)Nc1ccc(S(=O)(=O)N2CCC[C@@H]2C(=O)O)cc1 [AS-105, S(=O)(=O)(N1[C@@H](C(=O)O)CCC1)c1ccc(NC(=O)c2n(C)nc(C(F)(F)F)c2)cc1] | 23000 nM | 23000 nM | 23000 nM | 23000 nM | > 300000 nM
9 | Cn1cc(C(F)(F)F)cc1C(=O)Nc1ccc(S(=O)(=O)N2CCC(C(F)(F)F)CC2)cc1 [15k, S(=O)(=O)(N1CCC(C(F)(F)F)CC1)c1ccc(NC(=O)c2n(C)cc(C(F)(F)F)c2)cc1] | 20 nM | 20 nM | 20 nM | 20 nM | 159000 nM
10 | CC1CCCCN1S(=O)(=O)c1ccc(NC(=O)c2cc(C(F)(F)F)cn2C)cc1 (centres unmarked) [15b, S(=O)(=O)(N1C(C)CCCC1)c1ccc(NC(=O)c2n(C)cc(C(F)(F)F)c2)cc1] | 28.9 nM | 28 nM | 29 nM | 29 nM | > 300000 nM
11 | O=C(Nc1ccc(S(=O)(=O)N2CCCC2)cc1)c1nccn1-c1ccccc1C(F)(F)F [MS-12, S(=O)(=O)(N1CCCC1)c1ccc(NC(=O)c2n(-c3c(C(F)(F)F)cccc3)ccn2)cc1] | 65000 nM | 65000 nM | 65000 nM | 65000 nM | > 300000 nM
12 | CCCN(CCC)S(=O)(=O)c1ccc(NC(=O)c2cc(C(F)(F)F)cn2C)cc1 [15p, S(=O)(=O)(N(CCC)CCC)c1ccc(NC(=O)c2n(C)cc(C(F)(F)F)c2)cc1] | 190 nM | 190 nM | 190 nM | 190 nM | > 300000 nM
13 | CC(=O)Oc1ccccc1S(=O)(=O)c1ccc(NC(=O)c2cc(C(F)(F)F)nn2C)cc1 [3d, S(=O)(=O)(c1c(OC(=O)C)cccc1)c1ccc(NC(=O)c2n(C)nc(C(F)(F)F)c2)cc1] | 4500 nM | 4500 nM | 4500 nM | 4510 nM | > 100000 nM
14 | Cn1nc(C(F)(F)F)cc1C(=O)Nc1ccc(S(=O)(=O)N2CCCCC2CO)cc1 (centres unmarked) [28c, S(=O)(=O)(N1C(CO)CCCC1)c1ccc(NC(=O)c2n(C)nc(C(F)(F)F)c2)cc1] | 850 nM | 850 nM | 850 nM | 851 nM | 
15 | Cn1nc(C(F)(F)F)cc1C(O)Cc1ccc(S(=O)(=O)N2CCCC2)cc1 (centres unmarked) [MS-27, S(=O)(=O)(N1CCCC1)c1ccc(CC(O)c2n(C)nc(C(F)(F)F)c2)cc1] | 41000 nM | 41000 nM | 41000 nM | 41000 nM | > 300000 nM
16 | CN(C)S(=O)(=O)c1ccc(NC(=O)c2cc(C(F)(F)F)cn2C)cc1 [15m, S(=O)(=O)(N(C)C)c1ccc(NC(=O)c2n(C)cc(C(F)(F)F)c2)cc1] | 6300 nM | 6300 nM | 6300 nM | 6310 nM | > 300000 nM

Row | Structure (SMILES) | IC50 (MeV [1]) | EC50 (MeV [1]) | IC50 (MeV [2]; Figure 7A source data) | IC50 (MeV [2]; [4]) | CC50 [3]
17 | Cn1cc(C(F)(F)F)cc1C(=O)Nc1ccc(S(=O)(=O)N2CCCCC2)cc1 [15a, S(=O)(=O)(N1CCCCC1)c1ccc(NC(=O)c2n(C)cc(C(F)(F)F)c2)cc1] | 14 nM | 14 nM | 14 nM | 14 nM | > 300000 nM
18 | Cn1nc(C(F)(F)F)cc1C(=O)Nc1ccc(S(=O)(=O)c2ccccc2)cc1 [3a, S(=O)(=O)(c1ccc(NC(=O)c2n(C)nc(C(F)(F)F)c2)cc1)c1ccccc1] | 90 nM | 90 nM | 90 nM | 90.2 nM | > 100000 nM
19 | CCC1CCCCN1S(=O)(=O)c1ccc(NC(=O)c2cc(C(F)(F)F)cn2C)cc1 (centres unmarked) [15e, S(=O)(=O)(N1C(CC)CCCC1)c1ccc(NC(=O)c2n(C)cc(C(F)(F)F)c2)cc1] | 86.9 nM | 86 nM | 87 nM | 87.1 nM | > 300000 nM
20 | COCOCC1CCCCN1S(=O)(=O)c1ccc(NC(=O)c2cc(C(F)(F)F)nn2C)cc1 (centres unmarked) [1a, S(=O)(=O)(N1C(COCOC)CCCC1)c1ccc(NC(=O)c2n(C)nc(C(F)(F)F)c2)cc1] | 1500 nM | 1500 nM | 1500 nM | 1500 nM | > 100000 nM
21 | Cn1nc(C(F)(F)F)cc1C(=O)Nc1ccc(S(=O)(=O)N2CCCCC2)cc1 [AS-136a, S(=O)(=O)(N1CCCCC1)c1ccc(NC(=O)c2n(C)nc(C(F)(F)F)c2)cc1] | 14 nM | 14 nM | 14 nM | 14 nM | > 300000 nM
22 | CCn1nc(C(F)(F)F)cc1C(=O)Nc1ccc(S(=O)(=O)N2CCCCC2C)cc1 (centres unmarked) [9a, S(=O)(=O)(N1C(C)CCCC1)c1ccc(NC(=O)c2n(CC)nc(C(F)(F)F)c2)cc1] | 55 nM | 55 nM | 55 nM | 55.1 nM | 30000 nM
23 | CC1CCN(S(=O)(=O)c2ccc(NC(=O)c3cc(C(F)(F)F)cn3C)cc2)CC1 [15c, S(=O)(=O)(N1CCC(C)CC1)c1ccc(NC(=O)c2n(C)cc(C(F)(F)F)c2)cc1] | 35 nM | 35 nM | 35 nM | 35.1 nM | > 300000 nM
24 | Cn1cc(C(F)(F)F)cc1C(=O)Nc1ccc(S(=O)(=O)N2CCCC2C(=O)O)cc1 (centres unmarked) [15i, S(=O)(=O)(N1C(C(=O)O)CCC1)c1ccc(NC(=O)c2n(C)cc(C(F)(F)F)c2)cc1] | 23000 nM | 23000 nM | 23000 nM | 23000 nM | > 300000 nM
25 | Cn1cc(C(F)(F)F)cc1C(=O)Nc1ccc(S(=O)(=O)N2CCCCCCC2)cc1 [15g, S(=O)(=O)(N1CCCCCCC1)c1ccc(NC(=O)c2n(C)cc(C(F)(F)F)c2)cc1] | 45 nM | 45 nM | 45 nM | 45.1 nM | > 300000 nM
26 | C=CCN(CC=C)S(=O)(=O)c1ccc(NC(=O)c2cc(C(F)(F)F)cn2C)cc1 [15r, S(=O)(=O)(N(CC=C)CC=C)c1ccc(NC(=O)c2n(C)cc(C(F)(F)F)c2)cc1] | 3300 nM | 3300 nM | 3300 nM | 3300 nM | 34000 nM
27 | Cn1nc(C(F)(F)F)cc1C(=O)Nc1ccc(S(=O)(=O)N2CCCC[C@H]2CCO)cc1 [2k, S(=O)(=O)(N1[C@H](CCO)CCCC1)c1ccc(NC(=O)c2n(C)nc(C(F)(F)F)c2)cc1] |  | 100 nM |  | 100 nM | > 100000 nM
28 | COc1ccccc1S(=O)(=O)c1ccc(NC(=O)c2cc(C(F)(F)F)nn2C)cc1 [3b, S(=O)(=O)(c1c(OC)cccc1)c1ccc(NC(=O)c2n(C)nc(C(F)(F)F)c2)cc1] | 3090 nM | 3000 nM | 3100 nM | 3100 nM | > 100000 nM
29 | Cn1nc(C(F)(F)F)cc1C(=O)Nc1ccc(S(=O)(=O)c2ccccc2O)cc1 [3c, S(=O)(=O)(c1c(O)cccc1)c1ccc(NC(=O)c2n(C)nc(C(F)(F)F)c2)cc1] | 4500 nM | 4500 nM | 4500 nM | 4510 nM | 75000 nM
30 | Cn1nc(C(F)(F)F)cc1C(=O)Nc1ccc(S(=O)(=O)N2CCCC2)cc1 [compound 16677, S(=O)(=O)(N1CCCC1)c1ccc(NC(=O)c2n(C)nc(C(F)(F)F)c2)cc1] | 239 nM | 230 nM | 240 nM | 240 nM | > 300000 nM
31 | Cn1cc(C(F)(F)F)cc1C(=O)Nc1ccc(S(=O)(=O)N2CCCCCC2)cc1 [15f, S(=O)(=O)(N1CCCCCC1)c1ccc(NC(=O)c2n(C)cc(C(F)(F)F)c2)cc1] | 5 nM | 5 nM | 5 nM | 5 nM | > 300000 nM
